Test results from patent US10111873B1, “Dihydropyrimidinone derivatives” (KING SAUD UNIVERSITY, priority 2018, dated 2018).

Row | SMILES | melting point [°C]
1 | O=C1NC=C(C(=O)c2ccc(N3CCNCC3)cc2)C(c2ccccc2[N+](=O)[O-])N1 (stereo not shown) [DHPM-2, 4-(2-Nitrophenyl)-5-[4-(piperazin-1-yl)benzoyl]-3,4-dihydropyrimidin-2(1H)-one] | 170 to 172
2 | O=C1NC=C(C(=O)c2ccc(N3CCOCC3)cc2)C(c2ccccc2[N+](=O)[O-])N1 (stereo not shown) [DHPM-12, 5-[4-(morpholin-4-yl)benzoyl]-4-(2-nitrophenyl)-3,4-dihydropyrimidin-2(1H)-one] | 198 to 200
3 | COc1ccccc1C1NC(=O)NC=C1C(=O)c1ccc(N2CCOCC2)cc1 (stereo not shown) [DHPM-16, 4-(2-methoxyphenyl)-5-[4-(morpholin-4-yl)benzoyl]-3,4-dihydropyrimidin-2(1H)-one] | 178 to 180
4 | COc1cccc(C2NC(=O)NC=C2C(=O)c2ccc(N3CCNCC3)cc2)c1 (stereo not shown) [DHPM-9, 4-(3-methoxyphenyl)-5-[4-(piperazin-1-yl)benzoyl]-3,4-dihydropyrimidin-2(1H)-one] | 118 to 120
5 | O=C1NC=C(C(=O)c2ccc(N3CCNCC3)cc2)C(c2ccc([N+](=O)[O-])cc2)N1 (stereo not shown) [DHPM-3, 4-(4-Nitrophenyl)-5-[4-(piperazin-1-yl)benzoyl]-3,4-dihydropyrimidin-2(1H)-one] | 175 to 177
6 | O=C1NC=C(C(=O)c2ccc(N3CCOCC3)cc2)C(c2ccc(Cl)cc2)N1 (stereo not shown) [DHPM-15, 4-(4-chlorophenyl)-5-[4-(morpholin-4-yl)benzoyl]-3,4-dihydropyrimidin-2(1H)-one] | 288 to 290
7 | O=C1NC=C(C(=O)c2ccc(N3CCOCC3)cc2)C(c2ccc([N+](=O)[O-])cc2)N1 (stereo not shown) [DHPM-13, 5-[4-(morpholin-4-yl)benzoyl]-4-(4-nitrophenyl)-3,4-dihydropyrimidin-2(1H)-one] | 202 to 204
8 | O=C1NC=C(C(=O)c2ccc(N3CCNCC3)cc2)C(c2ccc(O)cc2)N1 (stereo not shown) [DHPM-7, 4-(4-Hydroxyphenyl)-5-[4-(piperazin-1-yl)benzoyl]-3,4-dihydropyrimidin-2(1H)-one] | 210 to 212
9 | O=C1NC=C(C(=O)c2ccc(N3CCOCC3)cc2)C(c2cccc(O)c2)N1 (stereo not shown) [DHPM-18, 4-(3-hydroxyphenyl)-5-[4-(morpholin-4-yl)benzoyl]-3,4-dihydropyrimidin-2(1H)-one] | 120 to 122
10 | O=C1NC=C(C(=O)c2ccc(N3CCOCC3)cc2)C(c2ccccc2)N1 (stereo not shown) [DHPM-11, 5-[4-(morpholin-4-yl)benzoyl]-4-phenyl-3,4-dihydropyrimidin-2(1H)-one] | 258 to 260
11 | O=C1NC=C(C(=O)c2ccc(N3CCOCC3)cc2)C(c2cccc([N+](=O)[O-])c2)N1 (stereo not shown) [DHPM-14, 5-[4-(morpholin-4-yl)benzoyl]-4-(3-nitrophenyl)-3,4-dihydropyrimidin-2(1H)-one] | 205 to 207
12 | COc1ccccc1C1NC(=O)NC=C1C(=O)c1ccc(N2CCNCC2)cc1 (stereo not shown) [DHPM-6, 4-(2-methoxyphenyl)-5-[4-(piperazin-1-yl)benzoyl]-3,4-dihydropyrimidin-2(1H)-one] | 120 to 122
13 | O=C1NC=C(C(=O)c2ccc(N3CCNCC3)cc2)C(c2ccc(Cl)cc2)N1 (stereo not shown) [DHPM-5, 4-(4-Chlorophenyl)-5-[4-(piperazin-1-yl)benzoyl]-3,4-dihydropyrimidin-2(1H)-one] | 160 to 162
14 | O=C1NC=C(C(=O)c2ccc(N3CCNCC3)cc2)C(c2ccccc2)N1 (stereo not shown) [DHPM-1, 4-phenyl-5-[4-(piperazin-1-yl)benzoyl]-3,4-dihydropyrimidin-2(1H)-one] | 150 to 152
15 | CCOc1cccc(C2NC(=O)NC=C2C(=O)c2ccc(N3CCNCC3)cc2)c1 (stereo not shown) [DHPM-10, 4-(3-Ethoxyphenyl)-5-[4-(piperazin-1-yl)benzoyl]-3,4-dihydropyrimidin-2(1H)-one] | 88 to 90
16 | O=C1NC=C(C(=O)c2ccc(N3CCNCC3)cc2)C(c2cccc([N+](=O)[O-])c2)N1 (stereo not shown) [DHPM-4, 4-(3-Nitrophenyl)-5-[4-(piperazin-1-yl)benzoyl]-3,4-dihydropyrimidin-2(1H)-one] | 180 to 182
17 | O=C1NC=C(C(=O)c2ccc(N3CCOCC3)cc2)C(c2ccc(O)cc2)N1 (stereo not shown) [DHPM-17, 4-(4-hydroxyphenyl)-5-[4-(morpholin-4-yl)benzoyl]-3,4-dihydropyrimidin-2(1H)-one] | 118 to 120
18 | O=C1NC=C(C(=O)c2ccc(N3CCNCC3)cc2)C(c2cccc(O)c2)N1 (stereo not shown) [DHPM-8, 4-(3-Hydroxyphenyl)-5-[4-(piperazin-1-yl)benzoyl]-3,4-dihydropyrimidin-2(1H)-one] | 158 to 160
19 | CCOc1ccc(C2NC(=O)NC=C2C(=O)c2ccc(N3CCOCC3)cc2)cc1 (stereo not shown) [DHPM-20, 4-(4-ethoxyphenyl)-5-[4-(morpholin-4-yl)benzoyl]-3,4-dihydropyrimidin-2(1H)-one] | 200 to 202
